Literature values, collected in US9637723B2, “Generation of functional and durable endothelial cells from human amniotic fluid-derived cells” (Cornell University, priority 2012, dated 2017).
Read-outs that look alike come from different tables or passages of the source.

Molecular target: T1, ALK5 (Homo sapiens, UniProt P36897)
T1 sequence (P36897 34-503): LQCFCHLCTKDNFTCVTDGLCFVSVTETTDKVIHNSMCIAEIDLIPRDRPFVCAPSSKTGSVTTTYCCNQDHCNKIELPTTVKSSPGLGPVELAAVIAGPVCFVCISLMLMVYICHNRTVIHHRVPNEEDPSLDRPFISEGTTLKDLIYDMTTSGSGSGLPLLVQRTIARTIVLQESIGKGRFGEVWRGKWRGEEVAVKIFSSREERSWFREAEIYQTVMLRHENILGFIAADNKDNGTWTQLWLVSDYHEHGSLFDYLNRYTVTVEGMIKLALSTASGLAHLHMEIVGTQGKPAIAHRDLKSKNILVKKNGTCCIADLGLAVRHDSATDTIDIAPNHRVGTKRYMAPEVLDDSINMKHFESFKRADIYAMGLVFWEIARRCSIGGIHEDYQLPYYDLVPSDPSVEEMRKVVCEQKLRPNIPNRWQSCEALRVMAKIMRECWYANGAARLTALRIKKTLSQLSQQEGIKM

[1] = as listed for compounds available through Tocris Bioscience

Row | Function | SMILES | Function [1]
1 | – | Cc1cccc(-c2nn(C(=S)Nc3ccccc3)cc2-c2ccnc3ccccc23)n1 [A 83-01, 3-(6-Methyl-2-pyridinyl)-N-phenyl-4-(4-quinolinyl)-1H-pyrazole-1-carbothioamide] | (Selective inhibitor of ALK5, ALK4 and ALK7)
2 | (Selective inhibitor of ALK5) | c1ccc(-c2n[nH]cc2-c2ccnc3ccccc23)nc1 [LY 364947, 4-[3-(2-Pyridinyl)-1H-pyrazol-4-yl]-quinoline] | –
3 | – | Cc1cccc(-c2n[nH]cc2-c2ccc3ncccc3n2)n1 [SJN 2511, 2-(3-(6-Methylpyridine-2-yl)-1H-pyrazol-4-yl)-1,5-naphthyridine] | (Selective inhibitor of ALK5)
